In article PMC6041282, “Inhibition and Eradication of Pseudomonas aeruginosa Biofilms by Host Defence Peptides” (Scientific Reports, 2018):
Values after ≈ are worked out from the molar mass of the structure shown. Where no end group is shown, it is not given here.

Test system: planktonic P. aeruginosa
Conditions: broth dilution in MHB, 0-40 μM peptide, no visual growth after 24 h at 37 °C, polypropylene 96 wells plate
Experimental: Antimicrobial activity of HDP’s against planktonic P. aeruginosa was assessed using broth dilution assays. An overnight culture of P. aeruginosa was grown in MHB at 37 °C to mid-logarithmic phase and diluted to 2 × 10^6 CFU/ml. In a round bottom polypropylene 96 wells plate 50 μl bacteria were mixed with 50 μl of HDP (final concentration 0–40 μM). MIC was defined as the concentration of peptide which inhibited visual growth of bacteria in the wells after 24 h incubation at 37 °C. Subsequently, wells without visual growth were plated out on TSA plates and incubated at 37 °C for 24 h to determine the MBC.

Row | Compound | MIC [µM]
1 | GLLRKGGEKIGEKLKKIGQKIKNFFQKLVPQPEQ [CRAMP] | 40
2 | CC[C@H](C)[C@H](NC(=O)[C@H](CCCCN)NC(=O)[C@H](CCC(=O)O)NC(=O)[C@H](CCCCN)NC(=O)[C@H](CO)NC(=O)[C@H](CCCCN)NC(=O)[C@H](CCCNC(=N)N)NC(=O)[C@H](Cc1ccccc1)NC(=O)[C@H](Cc1ccccc1)NC(=O)[C@H](CC(=O)O)NC(=O)CNC(=O)[C@H](CC(C)C)NC(=O)[C@@H](N)CC(C)C)C(=O)NCC(=O)N[C@@H](CCCCN)C(=O)N[C@@H](CCC(=O)O)C(=O)N[C@@H](Cc1ccccc1)C(=O)N[C@@H](CCCCN)C(=O)N[C@@H](CCCNC(=N)N)C(=O)N[C@H](C(=O)N[C@H](C(=O)N[C@@H](CCC(N)=O)C(=O)N[C@@H](CCCNC(=N)N)C(=O)N[C@H](C(=O)N[C@@H](CCCCN)C(=O)N[C@@H](CC(=O)O)C(=O)N[C@@H](Cc1ccccc1)C(=O)N[C@@H](CC(C)C)C(=O)N[C@@H](CCCNC(=N)N)C(=O)N[C@@H](CC(N)=O)C(=O)N[C@@H](CC(C)C)C(=O)N[C@H](C(=O)N1CCC[C@H]1C(=O)N[C@@H](CCCNC(=N)N)C(=O)N[C@H](C(=O)N[C@@H](CCC(=O)O)C(=O)N[C@@H](CO)C(=O)O)[C@@H](C)O)C(C)C)[C@@H](C)CC)C(C)C)[C@@H](C)CC [LL-37] | 10 (≈ 44.9 µg/mL)

Same assay, conditions: planktonic, 24 h

Row | Compound | MIC [µM] | MBC [µM]
3 | RLKELITTGGQKIGEKIRRIGQRIKDFFKNLQPREEKS [K9CATH] | 40 | > 40
4 | KRFGRLAKSFLRMRILLPRRKILLAS [eCATH-1] | 2.5 to 5 | 5 to 10
5 | RFGRFLRKIRRFRPKVTITIQGSARF [cCATH-2] | 5 to 10 | 10 to 20
6 | KRFHSVGSLIQRHQQMIRDKSEATRHGIRIITRPKLLLAS [eCATH-3] | > 40 | > 40
7 | RVKRFWPLVPVAINTVAAGINLYKAIRRK [cCATH-3] |  | 5 to 10
8 | KRRHWFPLSFQEFLEQLRRFRDQLPFP [eCATH-2] | > 40 | > 40

Further lines, with some results ahead:

Row | MIC [µM] | Compound | MBC [µM]
9 | 5 to 10 | RRRPRPPYLPRPRPPPFFPPRLPPRIPPGFPPRFPPRFP [PR-39] | 10
10 | 40 | RIIDLLWRVRRPQKPKFVTVWVR [PMAP-23] | > 40

Same assay, conditions: wells without visual growth plated on TSA, 24 h at 37 °C

Row | Compound | MBC [µM]
11 | GLLRKGGEKIGEKLKKIGQKIKNFFQKLVPQPEQ [CRAMP] | > 40
12 | CC[C@H](C)[C@H](NC(=O)[C@H](CCCCN)NC(=O)[C@H](CCC(=O)O)NC(=O)[C@H](CCCCN)NC(=O)[C@H](CO)NC(=O)[C@H](CCCCN)NC(=O)[C@H](CCCNC(=N)N)NC(=O)[C@H](Cc1ccccc1)NC(=O)[C@H](Cc1ccccc1)NC(=O)[C@H](CC(=O)O)NC(=O)CNC(=O)[C@H](CC(C)C)NC(=O)[C@@H](N)CC(C)C)C(=O)NCC(=O)N[C@@H](CCCCN)C(=O)N[C@@H](CCC(=O)O)C(=O)N[C@@H](Cc1ccccc1)C(=O)N[C@@H](CCCCN)C(=O)N[C@@H](CCCNC(=N)N)C(=O)N[C@H](C(=O)N[C@H](C(=O)N[C@@H](CCC(N)=O)C(=O)N[C@@H](CCCNC(=N)N)C(=O)N[C@H](C(=O)N[C@@H](CCCCN)C(=O)N[C@@H](CC(=O)O)C(=O)N[C@@H](Cc1ccccc1)C(=O)N[C@@H](CC(C)C)C(=O)N[C@@H](CCCNC(=N)N)C(=O)N[C@@H](CC(N)=O)C(=O)N[C@@H](CC(C)C)C(=O)N[C@H](C(=O)N1CCC[C@H]1C(=O)N[C@@H](CCCNC(=N)N)C(=O)N[C@H](C(=O)N[C@@H](CCC(=O)O)C(=O)N[C@@H](CO)C(=O)O)[C@@H](C)O)C(C)C)[C@@H](C)CC)C(C)C)[C@@H](C)CC [LL-37] | 10 to 20
